The results in this text go back to paper PMC11988454, “Discovery of synthetic small molecules targeting the central regulator of Salmonella pathogenicity” (Science Advances, 2025).

Series [1] has as its target T1, HilD (Salmonella typhimurium, UniProt P0CL08).
T1 construct: His6-SUMO (N, cleaved yes); made in house; host or cells: E. coli C41(DE3)
As to the kind of experiment: nanoDSF thermal stability, HilD. The format is binding, S. Typhimurium. How it is done:
Thermal stability of proteins was determined using nanoDSF, with runs performed on a Prometheus NT.48 (NanoTemper Technologies). A twofold serial dilution series of C26 was prepared in DMSO. C26 was added to HilD or HilC (5 μM) in SEC buffer, giving a final DMSO concentration of 1% (v/v). Samples were incubated for >20 min at r.t. and centrifuged for 2 min prior to loading of standard capillaries (no. PR-C002). Samples were heated from 20° to 80°C with a temperature gradient of 0.5°C min^−1. Melting temperatures were calculated from changes in the fluorescence ratio (350/330 nm), using PR.Stability Analysis v1.0.3 and a temperature range of 40° to 70°C for curve fitting. Data analysis was performed using Prism 8.4 (GraphPad). The change in HilD melting temperature, Tm, was fitted as a function of ligand concentration, using Eqs. 1 and 2 to yield apparent affinity (Kd,app) values Tm{[L]0}=Tm,lower+(Tm,upper−Tm,lower)*(1−α{[L]0}) (1) α{[L]0}=[P]t−Kd−[L]t+{[P]t+[L]t+Kd,app}^2−{4[P]t[L]t}/2[P]t (2) where [P]t and [L]t are the total protein and ligand concentrations, respectively.
(DSF heats the sample and reads unfolding from a dye or from intrinsic fluorescence.)

Series [2] has as its system SPI-4 encoded T1SS (SiiE). As to the kind of experiment: SiiE-HiBiT cell surface retention assay. The format is cell-based, S. Typhimurium. How it is done:
HiBiT was inserted chromosomally into SiiE at position K5411, using the suicide plasmid pMIB8021 (pSB890-siiE::K5411HiBiT). Bacteria were grown for 5 hours under SPI-4–inducing conditions (LB supplemented with 0.3 M NaCl). OD units of 0.5 were harvested at 10,000g for 2 min at 4°C. Cell pellets were washed twice with cold PBS and then resuspended to a final concentration of 0.5 OD units. Twenty-five microliters from the bacterial suspension was transferred into a 384-well plate. The Nano-Glo HiBiT Extracellular Buffer and corresponding substrate were prepared according to the manufacturer’s instructions. Twenty-five microliters of the Nano-Glo HiBiT Extracellular buffer-substrate mix was added to each sample and then incubated at r.t. for 10 min. Luminescence was measured with a Tecan Spark microplate reader.
(HiBiT is a short tag that completes a luciferase, so light tracks the accessible tagged protein.)

Series [3] has as its target T2, HilD (Salmonella typhimurium, UniProt E1WAC0).
T2 construct: endogenous in cells; host or cells: S. Typhimurium SL1344 strain PhilA-sfGFP
As to the kind of experiment: Whole-cell HilD activity assay (PhilA-sfGFP activation). Type of series: cell-based, S. Typhimurium. How it is done:
A whole-cell reporter gene assay was used to quantify HilD transcriptional activity. Strain PhilA-sfGFP and the isogenic ΔhilD PhilA-sfGFP were used for this purpose. Cultures were performed in 1 ml of LB supplemented with 0.3 M NaCl. Compounds at different concentrations or 1% (v/v) DMSO were added to the corresponding tubes. Cultures were incubated at 37°C and 180 rpm for 5 hours. Cells were pelleted, resuspended in 100 μl of PBS, and then transferred into a 96-well black clear-bottom plate (Thermo Fisher Scientific, USA). Fluorescence intensity was measured with a Tecan Spark microplate reader with an excitation wavelength of 485 nm and an emission wavelength of 510 nm. Dose-response curves and IC50 values were calculated using CDD Vault.

The target of series [4] is HilD-HilE heterodimer (Salmonella typhimurium, UniProt P0CL08). As to the kind of experiment: MST dimerization assay HilD-HilE. The following applies: 100 μM compound. The format is binding, S. Typhimurium. How it is done:
MST measurements for the binding of HilD to HilE were performed as previously described ([39]). In summary, enhanced yellow fluorescent protein (EYFP)-HilD (100 nM) was incubated with 100 μM either oleic acid or C26 [with a final concentration of 1% (v/v) DMSO] for 10 min at r.t. (22° to 25°C) and subsequently mixed 1:1 with varying concentrations of HilE. Samples were incubated together for 10 min at r.t., centrifuged for 5 min, and loaded to standard capillaries (NanoTemper Technologies GmbH, no. MO-K022). MST runs were performed at 25°C on a NanoTemper Monolith NT.115, with an excitation power of 60% and medium MST power. Data were analyzed using the MO.Affinity Analysis v2.3 software, and affinity constants were calculated using the Kd model.

Series [5] relates to T3SS-1 (SipA secretion). As to the kind of experiment: SipA-NLuc secretion assay (NanoLuc luciferase). The format is cell-based, S. Typhimurium. The following applies: Salmonella enterica, read-out: IC50 SipA secretion.
Procedure: (A) NanoLuc Luciferase assay to screen T3SS-1 inhibitors in 384-well plates. Compounds were screened at a final concentration of 100 μM (N = 3 replicates). Cultures with strains sipA-NLuc and ΔinvA, sipA-NLuc with 1% (v/v) DMSO were used as positive and negative controls, respectively. […] 100% relative SipA secretion corresponds to the luminescence intensity of the WT strain grown in the presence of 1% (v/v) DMSO. The relative SipA secretion of the ∆invA mutant was considered as the bottom (N = 2 technical replicates within N = 3 biological replicates).
For compound screening, 50 μl of overnight cultures of Salmonella with an approximate optical density at 600 nm (OD600) of 2 were diluted in fresh LB medium to an OD600 of 0.05 and added to 384-well plates (Nunc MaxiSorp, white) containing 5 nmol of screening compound per well, for a final compound concentration of 100 μM. The plates were incubated for 5 hours at 37°C with shaking at 180 rpm, upon which the bacteria were removed. The plates were washed with phosphate-buffered saline (PBS) [137 mM NaCl, 2.7 mM KCl, 10 mM Na2HPO4, and 1.8 mM KH2PO4 (pH 7.4)] using a Tecan HydroSpeed plate washer. Residual PBS after washing was removed, and 50 μl of NanoLuc working solution (NanoGlo, Promega) was added to the wells. Luminescence was then measured using a Tecan Sparc Multimode reader. […]
Series [6] relates to macrophages RAW 264.7. As to the kind of experiment: In vitro toxicity, CellTox Green Cytotoxicity Assay, macrophages. Type of series: cell-based. The following applies: RAW 264.7, 6 hours exposure. How it is done: The screening of in vitro toxicity of the compound analogs was performed with the CellTox Green Cytotoxicity Assay (Promega, USA) according to the manufacturer’s instructions. Cells (10^4 cells per well) were seeded into a 96-well plate and incubated for 24 hours at 37°C, 5% (v/v) CO2. Cells were then treated with the compound at different concentrations or 1% (v/v) DMSO in Dulbecco’s modified Eagle’s medium (DMEM) without phenol red at the desired exposure time. Fluorescence intensity was measured with a TECAN Spark microplate reader. […] page 4: […] 0 10000 20000 30000 40000 50000 Compound concentration (µM) Cytotoxicity (RFU) Fig. S3. […] Cytotoxicity Assay. Fluorescence was measured as a readout for cytotoxicity at 485Ex/520Em. N = 3 biological replicates. (1 picture or pasted object on this page, not shown here)

T1 sequence (P0CL08 whole entry): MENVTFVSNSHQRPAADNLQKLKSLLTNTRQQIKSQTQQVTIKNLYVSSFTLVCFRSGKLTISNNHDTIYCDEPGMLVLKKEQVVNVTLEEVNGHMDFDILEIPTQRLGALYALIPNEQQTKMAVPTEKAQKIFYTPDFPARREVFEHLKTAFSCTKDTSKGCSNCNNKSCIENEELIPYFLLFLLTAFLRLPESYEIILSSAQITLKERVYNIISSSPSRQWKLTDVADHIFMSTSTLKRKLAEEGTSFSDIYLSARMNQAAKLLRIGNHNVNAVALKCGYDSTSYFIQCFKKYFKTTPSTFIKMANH
T2 sequence (E1WAC0 whole entry): as the sequence (P0CL08 whole entry) above
Chain of HilD-HilE heterodimer (P0CL08 whole entry, one chain of several): as the sequence (P0CL08 whole entry) above

The term Kd denotes the constant that tells how readily two partners part at equilibrium. Broadly, the IC50 is the concentration that gives 50% inhibition. In turn, `CN(CC(=O)NCc1ccc2c(c1)OCO2)Cc1ccc(Br)s1` [C26, N-(benzo[d][1,3]dioxol-5-ylmethyl)-2-{[(5-bromothiophen-2-yl)methyl](methyl)amino}acetamide] registered a Kd in series [1] of 30.2 µM. Besides, the “SiiE-HiBiT retained on the bacterial cell surface” value in series [2] was “reduced in a dose-dependent manner”. The IC50 in series [3] was 16.9 µM; in series [5] it was 29.2 µM. Further, the “formation of HilD-HilE heterodimers” value in series [4] was “no effect on heterodimerization”. Besides, the toxicity in macrophages result in series [6] is on record as “No toxicity was observed”.
